Reference: article PMC4159853 (2014)

Tests used:
[1] = tested on: R12.57 (DNA, aptamer) TGTACCGTCTGAGCGATTCGTACGGATTGGGTTTGCACTTTACCTGCGGTGCATCGCAGCCAGTCAGTGTTAAGGAGTGC; experiment: fluorescence saturation bead-based binding assay; settings: 100 mM NaCl, 2 mM MgCl2; immobilised compound; 20 mM Tris-HCl, 10% methanol; reported as Kd for atrazine; some non-specific bead binding
[2] = tested on: R12.23 (DNA, aptamer) TGTACCGTCTGAGCGATTCGTACGAACGGCTTTGTACTGTTTGCACTGGCGGATTTAGCCAGTCAGTGTTAAGGAGTGC; experiment: fluorescence saturation bead-based binding assay; settings: 100 mM NaCl, 2 mM MgCl2; immobilised compound; 20 mM Tris-HCl, 10% methanol; reported by authors as Kd for atrazine
[3] = tested on: R12.28 (DNA, aptamer) TGTACCGTCTGAGCGATTCGTACCATTAGTGGGTGCTCCTTACCTGATGGTCATCTAGCCAGTCAGTGTTAAGGAGTGC; experiment: fluorescence saturation bead-based binding assay; settings: 100 mM NaCl, 2 mM MgCl2; immobilised compound; 20 mM Tris-HCl, 10% methanol; reported as Kd for atrazine; some non-specific bead binding
[4] = tested on: R12.23 (DNA, aptamer) TGTACCGTCTGAGCGATTCGTACGAACGGCTTTGTACTGTTTGCACTGGCGGATTTAGCCAGTCAGTGTTAAGGAGTGC; experiment: competitive elution of fluorescent ssDNA from target beads; settings: 100 mM NaCl, 2 mM MgCl2; 20 mM Tris-HCl, 10% methanol; 100 µM eluent, 5 nM ssDNA; buffer alone 0.15; from immobilised desethyl atrazine
[5] = tested on: 34-base truncation of R12.23 (DNA, aptamer) TACTGTTTGCACTGGCGGATTTAGCCAGTCAGTG; experiment: bead capture from processed river water, capillary electrophoresis quantification; settings: 100 mM NaCl, 2 mM MgCl2; 20 mM Tris-HCl; extract of river water spiked with 40 nM; 37% (1.5 nmol) recovered

Compound	Normalized Average Fluorescence [4]	further results
CC(C)Nc1nc(Cl)nc(NC(=O)CCCCCNC(=O)CCCC[C@@H]2SC[C@@H]3NC(=O)N[C@@H]32)n1		Kd [1]: 20.78 ± 4.74 nM; Kd [2]: 0.62 ± 0.21 nM; Kd [3]: 5.10 ± 1.32 nM
CC(C)Nc1nc(N)nc(Cl)n1	−0.054 ± 0.44	
CCC(=O)Nc1ccc(Cl)c(Cl)c1	0.65 ± 0.13	
CCNc1nc(Cl)nc(NC(C)C)n1	1 ± 0.11	binding [5]: yes
CCNc1nc(Cl)nc(NCC)n1	0.47 ± 0.14	
Nc1nc(N)nc(Cl)n1	0.47 ± 0.10	
O=C(O)COc1ccc(Cl)cc1Cl	0.64 ± 0.11	
